Each structure is given as a SMILES string.

The record followed here is patent US8623859B2, “Bradykinin B1 antagonists” (Evotec AG, priority 2008, dated 2014).

The test addresses T1, human B1 (Homo sapiens, UniProt P46663).
T1 construct: host or cells: CHO-K1
T1 sequence (P46663 1-353): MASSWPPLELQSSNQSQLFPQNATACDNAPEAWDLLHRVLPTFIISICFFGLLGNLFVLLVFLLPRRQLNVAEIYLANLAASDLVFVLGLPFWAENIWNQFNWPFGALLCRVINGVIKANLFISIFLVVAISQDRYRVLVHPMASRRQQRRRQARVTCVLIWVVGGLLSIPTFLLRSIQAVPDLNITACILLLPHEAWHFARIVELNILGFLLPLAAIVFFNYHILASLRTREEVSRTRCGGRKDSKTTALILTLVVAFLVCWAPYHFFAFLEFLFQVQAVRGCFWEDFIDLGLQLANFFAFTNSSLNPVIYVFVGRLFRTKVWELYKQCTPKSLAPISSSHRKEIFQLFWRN
Kind of test: Calcium flux assay for Bradykinin B1 antagonist, CHO-K1 cell line expressing human B1. Conditions: CHO-K1 cells expressing human B1, agonist Lys-(Des-Arg)-Bradykinin, read-out: Potency (IC50 value against human B1). Format: cell-based. As to the method:
Calcium Flux Assay for Bradykinin B1 Antagonist
The potency to inhibit the Bradykinin B1 receptors was determined for the compounds of this invention in a cell-based fluorescent calcium-mobilization assay. The assay measures the ability of test compounds to inhibit Bradykinin B1 receptor agonist-induced increase of intracellular free Ca^2+ in cell lines expressing B1.
The change of the intracellular Ca^2+ concentration is monitored with a specifically designed fluorescent plate reader (FlexStation, Molecular Devices).
CHO-K1 cell line expressing human B1 was purchased from Euroscreen (Gosselies, Belgium, with reference name hBl-D1). CHO-K1 cell lines expressing rat B1 or mouse B1 were established in the following way: the full-length receptor-coding cDNA clones were obtained by PCR performed on rat or mouse brain cDNAs. The respective cDNAs were cloned into an expression vector under the control of a CMV promotor. The resultant plasmids were introduced into CHO-K1 cells with liposome technology (FuGENE; Roche Diagnostics, Basel), according to the standard protocols described by the manufacturer. Cell lines expressing a Bradykinin receptor were selected in the culture medium containing 400 μg/ml G418 (Sigma). From selected cell populations, monoclonal cell lines were isolated by single cell cloning. The expression of Bradykinin receptors was confirmed by immunofluorescence staining of the cells, as well as by calcium flux assay.
Human B1-expressing cells were grown in Nutrient Mixture Ham's F12 (Sigma) containing 10% Foetal bovine serum (Sigma) and 400 μg/ml G418 (Sigma), 5 μg/ml puromycim (Sigma); Rat B1 and mouse B1-expressing cells were grown in DMEM/F12 medium (Sigma) containing 10% Foetal bovine serum (Sigma) and 400 μg/ml G418 (Sigma).
For the calcium flux assay, 80% confluent cells were detached from the culture vessels with Versene (Gibco; for human B1 cell-line) or with 1× trypsin-EDTA solution (Sigma; for rodent B1 cell-line), and seeded into 384-well plates (Cell binding Surface; Corning, N.Y.; #3683) at a density of 15,000 cells per well for human B1 or at a density of 20,000 cells per well for rodent B1. Cells were seeded in a volume of 50 μl in medium without antibiotics and incubated overnight in a humidified atmosphere with 5% CO2 at 37° C. The following day, the medium was replaced with 20 μl of 5 μM Fluo-4AM dye (Molecular Probes) in assay buffer (2.5 mM probenicid, 1 mg/ml pluronic acid, 0.1% BSA, 135 mM NaCl, 5 mM KCl, 1.8 mM CaCl, 1 mM MgCl2, 10 mM HEPES, 5.6 mM glucose, 0.05% gelatine, pH 7.4). The calcium indicator loaded cells were incubated at 37° C. for 2 hrs. Extracellular dye was then removed and each well was filled with 45 μl of assay buffer. Cell plates were kept in dark until used. Test compounds were assayed at 8 concentrations in triplicate. Serial 10-fold dilutions in 100% DMSO were made at a 100-times higher concentration than the final concentration, and then diluted 1:10 in assay buffer. 5 μl of each diluted compound was added to the well of cell plates (yielding final concentration with 1% DMSO), and incubated for 30 min at 25° C. before the addition of B1 agonist on the FlexStation.
The addition of agonist 20 μl per well to the assay plate was carried out on the FlexStation while continuously monitoring Ca^2+-dependent fluorescence at 538 nm. The integrated values, normalized with the background fluorescence, were plotted against the logarithm of the antagonist concentrations.
(A change in cytosolic calcium serves as a functional read-out for many receptors and channels.)

For `COc1cc(C)c(S(=O)(=O)N(C)Cc2cc(C(=O)NCc3ccc(Nc4cccc[n+]4C)cc3)co2)c(C)c1` [Ex 12, 2-({4-[({[5-({[(4-methoxy-2,6-dimethylphenyl)sulfonyl](methyl)amino}methyl)furan-3-yl]carbonyl}amino)methyl]phenyl}amino)-1-methylpyridinium iodide], the IC50 is 0.1 to 1 µM.
With `COc1cc(C)c(S(=O)(=O)N(C)Cc2cc(C(=O)NCCc3ccc(Nc4cccc[n+]4C)cc3)co2)c(C)c1` [Ex 13, 2-({4-[2-({[5-({[(4-methoxy-2,6-dimethylphenyl)sulfonyl](methyl)amino}methyl)furan-3-yl]carbonyl}amino)ethyl]phenyl}amino)-1-methylpyridinium iodide] the figure was less than 0.01 µM.
In the case of `COc1cc(C)c(S(=O)(=O)N(C)Cc2cc(C(=O)NCc3ccc(Nc4nccc(N)n4)cc3)co2)c(C)c1` [Ex 14, N-{4-[(4-aminopyrimidin-2-yl)amino]benzyl}-5-({[(4-methoxy-2,6-dimethylphenyl)sulfonyl](methyl)amino}methyl)furan-3-carboxamide] it was 0.1 to 1 µM; in that of `CCc1cc(Br)ccc1S(=O)(=O)N(C)Cc1cc(C(=O)N2CCCN(CCCN3CCCC3)CC2)co1` [Ex 15, 4-bromo-2-ethyl-N-methyl-N-[(4-{[4-(3-pyrrolidin-1-ylpropyl)-1,4-diazepan-1-yl]carbonyl}furan-2-yl)methyl]benzenesulfonamide], 0.01 to 0.1 µM.
Regarding `CCc1cc(Br)ccc1S(=O)(=O)N(C)Cc1cc(C(=O)NCc2cccc(CN3CCCC3)c2)co1` [Ex 16, 5-({[(4-bromo-2-ethylphenyl)sulfonyl](methyl)amino}methyl)-N-[3-(pyrrolidin-1-ylmethyl)benzyl]furan-3-carboxamide], the IC50 lay in the range of 0.1 to 1 µM.
Consider `CN1CCC(CN2CCN(C(=O)c3coc(CN(C)S(=O)(=O)c4c(Cl)cccc4Cl)c3)CC2)CC1` [Ex 17, 2,6-dichloro-N-methyl-N-{[4-({4-[(1-methylpiperidin-4-yl)methyl]piperazin-1-yl}carbonyl)furan-2-yl]methyl}benzenesulfonamide], for which the IC50 was 0.1 to 1 µM.
As for `CN(Cc1cc(C(=O)N2CCN(CCc3ccncc3)CC2)co1)S(=O)(=O)c1c(Cl)cccc1Cl` [Ex 18, 2,6-dichloro-N-methyl-N-[(4-{[4-(2-pyridin-4-ylethyl)piperazin-1-yl]carbonyl}furan-2-yl)methyl]benzenesulfonamide], the IC50 fell in the range of 0.1 to 1 µM.
As for `CN(Cc1ccc(C2=NCCN2)cc1)C(=O)c1coc(CN(C)S(=O)(=O)c2c(Cl)cc(Br)cc2Cl)c1` [Ex 19, 5-({[(4-bromo-2,6-dichlorophenyl)sulfonyl](methyl)amino}methyl)-N-[4-(4,5-dihydro-1H-imidazol-2-yl)benzyl]-N-methylfuran-3-carboxamide], the IC50 is less than 0.01 µM.
Turning to `Cc1cc(S(=O)(=O)N(C)Cc2cc(C(=O)N(C)Cc3ccc(C4=NCCN4)cc3)co2)c(C)cc1Cl` [Ex 20, 5-({[(4-chloro-2,5-dimethylphenyl)sulfonyl](methyl)amino}methyl)-N-[4-(4,5-dihydro-1H-imidazol-2-yl)benzyl]-N-methylfuran-3-carboxamide], the IC50 was less than 0.01 µM.
In the case of `CN(Cc1ccc(C2=NCCN2)cc1)C(=O)c1coc(CN(C)S(=O)(=O)c2ccc(Cl)cc2Cl)c1` [Ex 21, 5-({[(2,4-dichlorophenyl)sulfonyl](methyl)amino}methyl)-N-[4-(4,5-dihydro-1H-imidazol-2-yl)benzyl]-N-methylfuran-3-carboxamide], the IC50 was less than 0.01 µM.
In the case of `CN(CCc1ccc(C2=NCCN2)cc1)C(=O)c1coc(CN(C)S(=O)(=O)c2ccc(Cl)cc2Cl)c1` [Ex 22, 5-({[(2,4-dichlorophenyl)sulfonyl](methyl)amino}methyl)-N-{2-[4-(4,5-dihydro-1H-imidazol-2-yl)phenyl]ethyl}-N-methylfuran-3-carboxamide], the IC50 was in the range of 0.1 to 1 µM.
Regarding `CN(Cc1ccc(C2=NCCN2)cc1)C(=O)c1coc(CN(C)S(=O)(=O)c2c(Cl)cccc2Cl)c1` [Ex 23, 5-({[(2,6-dichlorophenyl)sulfonyl](methyl)amino}methyl)-N-[4-(4,5-dihydro-1H-imidazol-2-yl)benzyl]-N-methylfuran-3-carboxamide], the IC50 was less than 0.01 µM.
On to `CN(CCc1ccc(C2=NCCN2)cc1)C(=O)c1coc(CN(C)S(=O)(=O)c2c(Cl)cc(Br)cc2Cl)c1` [Ex 24, 5-({[(4-bromo-2,6-dichlorophenyl)sulfonyl](methyl)amino}methyl)-N-{2-[4-(4,5-dihydro-1H-imidazol-2-yl)phenyl]ethyl}-N-methylfuran-3-carboxamide], for which the IC50 was less than 0.01 µM.
In the case of `CN(Cc1cc(C(=O)NCCc2ccc(C3=NCCN3)cc2)co1)S(=O)(=O)c1c(Cl)cc(Br)cc1Cl` [Ex 25, 5-({[(4-bromo-2,6-dichlorophenyl)sulfonyl](methyl)amino}methyl)-N-{2-[4-(4,5-dihydro-1H-imidazol-2-yl)phenyl]ethyl}furan-3-carboxamide], the IC50 fell in the range of 0.1 to 1 µM.
On to `CN(Cc1cc(C(=O)NCc2ccc(C3=NCCN3)cc2)co1)S(=O)(=O)c1c(Cl)cccc1Cl` [Ex 26, 5-({[(2,6-dichlorophenyl)sulfonyl](methyl)amino}methyl)-N-[4-(4,5-dihydro-1H-imidazol-2-yl)benzyl]furan-3-carboxamide], for which the IC50 was 0.1 to 1 µM.
Consider `CN(Cc1cc(C(=O)NCc2ccc(CN3CCCC3)cc2)co1)S(=O)(=O)c1c(Cl)cc(Br)cc1Cl` [Ex 27, 5-({[(4-bromo-2,6-dichlorophenyl)sulfonyl](methyl)amino}methyl)-N-[4-(pyrrolidin-1-ylmethyl)benzyl]furan-3-carboxamide], for which the IC50 was in the range of 0.1 to 1 µM.
Regarding `Cc1cc(S(=O)(=O)N(C)Cc2cc(C(=O)N(C)CCc3ccc(C4=NCCN4)cc3)co2)c(C)cc1Cl` [Ex 28, 5-({[(4-chloro-2,5-dimethylphenyl)sulfonyl](methyl)amino}methyl)-N-{2-[4-(4,5-dihydro-1H-imidazol-2-yl)phenyl]ethyl}-N-methylfuran-3-carboxamide], the IC50 lay in the range of 0.1 to 1 µM.
As for `COc1cc(C)c(S(=O)(=O)N(C)Cc2cc(C(=O)N(C)Cc3ccc(C4=NCCN4)cc3)co2)c(C)c1` [Ex 29, N-[4-(4,5-dihydro-1H-imidazol-2-yl)benzyl]-5-({[(4-methoxy-2,6-dimethylphenyl)sulfonyl](methyl)amino}methyl)-N-methylfuran-3-carboxamide], the 50% inhibitory concentration (IC50) is less than 0.01 µM.
For `COc1cc(C)c(S(=O)(=O)N(C)Cc2cc(C(=O)N3CCCC(c4ccc(C5=NCCN5)cc4)C3)co2)c(C)c1` (stereo not drawn) [Ex 30, N-{[4-({3-[4-(4,5-dihydro-1H-imidazol-2-yl)phenyl]piperidin-1-yl}carbonyl)furan-2-yl]methyl}-4-methoxy-N,2,6-trimethylbenzenesulfonamide], the IC50 is less than 0.01 µM.
With `COc1cc(C)c(S(=O)(=O)N(C)Cc2cc(C(=O)N3CCN(CC4CCCN(C)C4)CC3)co2)c(C)c1` (stereo not drawn) [Ex 31, 4-methoxy-N,2,6-trimethyl-N-{[4-({4-[(1-methylpiperidin-3-yl)methyl]piperazin-1-yl}carbonyl)furan-2-yl]methyl}benzenesulfonamide] the figure was 0.01 to 0.1 µM.
For `COc1cc(C)c(S(=O)(=O)N(C)Cc2cc(C(=O)N3CCN(CC4CCN(C)CC4)CC3)co2)c(C)c1` [Ex 32, 4-methoxy-N,2,6-trimethyl-N-{[4-({4-[(1-methylpiperidin-4-yl)methyl]piperazin-1-yl}carbonyl)furan-2-yl]methyl}benzenesulfonamide], the half-maximal inhibitory concentration (IC50) lay in the range of 0.1 to 1 µM.

A word on the IC50: it is the concentration that inhibits the measured activity by half.
